Among the data in patent US4175081A, “5-Substituted thiadiazole ureas” (priority 1977, dated 1979) are pest or weed control values, retold here.

For orientation: pest or weed control means how far the test organism was held down. Low values mean a weak effect, high ones a strong effect.

Assay [1] concerns Crabgrass (CG). Nature of the assay: Post-emergence herbicide test. The format is in vivo, Digitaria sanquinalis. The following applies: Digitaria sanguinalis, post-emergence, 336 h, two weeks after treatment; for pest or weed control at 4483.4 g/ha: 4 lb/acre; for pest or weed control at 8966.8 g/ha: 8 lb/acre. Put shortly:
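Crabgrass (Digitaria sanquinalis) was surface seeded individually in 3' plastic pots of potting soil, covered with screened soil, and watered by sub-irrigation in greenhouse trays. Planting was staggered so seedlings reached the target stage together. Post-emergence sprays were applied in a hood with a removable belt and fixed nozzle, and control was visually rated two weeks after treatment.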

Assay [2] relates to Yellow foxtail grass (YF). Nature of the assay: Post-emergence herbicide test. The format is in vivo, Setaria glauca. The note with it: Setaria, 336 h, 4 lb/acre, two weeks after treatment. As for the experimental part: Yellow foxtail grass (YF)--Setaria glauca
All crop and weed species were planted individually in 3' plastic pots containing potting soil. Four seeds each of corn, cotton, and snapbeans were seeded to a depth equal to the diameter of the seed. All other species were surface seeded and sprinkled with screened soil in an amount sufficient to cover the seed. Immediately after planting, all pots were watered by sub-irrigation in greenhouse trays. Pots for the pre-emergence phase were seeded one day before treatment.
Planting dates for the post-emergence phase were varied so that all seedlings would reach the desired stage of development simultaneously. The proper stage of seedling development for treatment in the post-emergence phase is as follows:
Compounds were tested at rates of application equivalent to 8 lbs. of actual compound per acre in a spray volume of 38 gallons per acre. Spray hood constants required to deliver the above volume are as follows:
Formulations for spray applications were prepared in 50 ml volumes with the following three components:
Formulations for the 4 lbs/acre rate were prepared by adjusting the amount of active ingredient accordingly.
Spray applications were made in a hood containing a removable belt and fixed spray nozzle. For passage through the spray hood, one pot of each specie (pre-emergence phase) was placed on the rear half of the flat. Treatments were removed to the greenhouse after spraying. Watering during the observation period was done only by sub-irrigation.
Two weeks after treatment, pre- and post-emergence injury or control was visually rated, and the results were as shown in the following tables. Pre-emergence data are provided in TABLE III and post-emergence data are provided in TABLE IV, for compounds having the formula illustrated in TABLE I. Correspondingly, pre-emergence and post-emergence data, respectively, are set forth in TABLES V AND VI, for compounds having the formula illustrated in TABLE II.

The test system of assay [3] is Johnson grass (JG). Nature of the assay: Post-emergence herbicide test. The format is in vivo, Sorgum helepense. The note with it: Sorghum halepense, 336 h, two weeks after treatment; for pest or weed control at 4483.4 g/ha: 4 lb/acre; for pest or weed control at 8966.8 g/ha: 8 lb/acre. The gist of the method:
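Visual injury or control scores taken 2 weeks after a post-emergence spray of pot-grown plants. Application was 8 lbs/acre (or 4 lbs/acre) in 38 gal/acre. Plants were held in the greenhouse with sub-irrigation only.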

Assay [4] relates to Barnyard grass (BG). Nature of the assay: Post-emergence herbicide test. The format is in vivo. The note with it: Echinochloa crus-galli, 336 h, two weeks after treatment; for pest or weed control at 4483.4 g/ha: 4 lb/acre. The gist of the method:
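Greenhouse pot-grown barnyard grass seedlings sprayed post-emergence at 8 lbs active compound per acre (some at 4 lbs/acre) in 38 gallons per acre, then sub-irrigated. Injury or control rated visually two weeks after treatment.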

The subject of assay [5] is Turnip (TP). Nature of the assay: Post-emergence herbicide test. The format is in vivo, Brassica sp. The following applies: Brassica rapa, post-emergence, 336 h, two weeks after treatment; for pest or weed control at 4483.4 g/ha: 4 lb/acre; for pest or weed control at 8966.8 g/ha: 8 lb/acre. The gist of the method: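 A greenhouse post-emergence herbicide test on turnip. Seeds were sown on the surface of potting soil in 3' plastic pots, lightly covered with screened soil and watered from below. Planting was timed so seedlings had 1 or 2 true leaves above the cotyledons at spraying, done in a hood with a fixed nozzle. Control or injury was scored by eye after two weeks.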

Assay [6] relates to Cotton (CT). Kind of assay: Post-emergence herbicide test. The format is in vivo, Gossypium hirsutum var. DPL smooth leaf. The note with it: Gossypium hirsutum, post-emergence, 336 h, two weeks after treatment; for pest or weed control at 4483.4 g/ha: 4 lb/acre; for pest or weed control at 8966.8 g/ha: 8 lb/acre. Put shortly: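 This greenhouse post-emergence test measured how well spray treatments controlled cotton. Seedlings of Gossypium hirsutum var. DPL smooth leaf, with expanded cotyledons and a first true leaf 1' in length, were sprayed with 50 ml formulations in a belt-fed spray hood. They were then returned to the greenhouse and watered only by sub-irrigation. Injury was scored visually as % control after two weeks.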

Assay [7] deals with Corn (CN). Nature of the assay: Post-emergence herbicide test. It counts as in vivo. The following applies: Zea mays, 336 h, two weeks after treatment; for pest or weed control at 4483.4 g/ha: 4 lb/acre; for pest or weed control at 8966.8 g/ha: 8 lb/acre. The gist of the method:
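Greenhouse seedlings grown in potting soil and sprayed post-emergence at 8 lbs compound/acre (formulations also made for 4 lbs/acre) in 38 gallons/acre spray volume. Watering by sub-irrigation only. Injury or control rated visually two weeks after treatment.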

In assay [8] the test system is Bean (BN). Nature of the assay: Post-emergence herbicide test. The note with it: Phaseolus vulgaris, post-emergence, 336 h, two weeks after treatment; for pest or weed control at 4483.4 g/ha: 4 lb/acre; for pest or weed control at 8966.8 g/ha: 8 lb/acre. The format is in vivo, Phaseolus vulgaris var. Black Valentine. Put shortly: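 Bean seedlings (Phaseolus vulgaris var. Black Valentine) were grown in potting soil in 3' pots until the primary leaves expanded. They were then sprayed under a hood with a removable belt and fixed nozzle, using 50 ml formulations. Afterward they were returned to the greenhouse and watered only by sub-irrigation. Percent control was judged visually two weeks after treatment.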

In assay [9] the test system is Crabgrass (CG). Kind of assay: Pre-emergence herbicide test. The note with it: Digitaria sanguinalis, pre-emergence, 336 h, two weeks after treatment; for pest or weed control at 8966.8 g/ha: 8 lb/acre. The format is in vivo, Digitaria sanquinalis. Put shortly: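 Crabgrass (Digitaria sanquinalis) was surface seeded in 3' plastic pots of potting soil, covered with screened soil, and watered by sub-irrigation in greenhouse trays. Pots were seeded one day before spraying in a hood with a moving belt and fixed nozzle. Plants stayed in the greenhouse on sub-irrigation, and pre-emergence control was rated visually two weeks after treatment.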

In assay [10] the test system is Johnson grass (JG). Kind of assay: Pre-emergence herbicide test. The format is in vivo, Sorgum helepense. The note with it: Sorghum halepense, 336 h, two weeks after treatment; for pest or weed control at 8966.8 g/ha: 8 lb/acre. Put shortly: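 Visual injury or control rating two weeks post-treatment, after pre-emergence spray of 8 or 4 lbs active per acre (38 gal/acre) onto pots sown the previous day. Greenhouse watering by sub-irrigation only.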

Assay [11] deals with Barnyard grass (BG). Kind of assay: Pre-emergence herbicide test. The format is in vivo. The following applies: Echinochloa crus-galli, 336 h, two weeks after treatment. Put shortly:
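Greenhouse pre-emergence spray test: pots seeded one day before treatment received compound at rates of 8 or 4 lb/acre (38 gal/acre). Visual injury/control scores for Echinochloa crus-galli taken at two weeks, with watering by sub-irrigation only.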

In assay [12] the test system is Amaranth pigweed (PW). Kind of assay: Pre-emergence herbicide test. It counts as in vivo, Amaranthus retroflexus. The following applies: 336 h, two weeks after treatment; for pest or weed control at 8966.8 g/ha: 8 lb/acre. The gist of the method: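 Visual injury or control ratings were made at two weeks on pre-emergence pots, sub-irrigated in the greenhouse. Seeds were sown a day before a hood spray delivering 8 lbs/acre (or 4 lbs/acre) of compound in 38 gallons per acre.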

Assay [13] relates to Turnip (TP). Nature of the assay: Pre-emergence herbicide test. The following applies: Brassica rapa, pre-emergence, 336 h, two weeks after treatment; for pest or weed control at 8966.8 g/ha: 8 lb/acre. The format is in vivo, Brassica sp. Put shortly: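 In this pre-emergence greenhouse test, turnip was seeded on the surface of potting soil in 3' plastic pots, lightly covered with screened soil, and watered from below. One day later the pots were sprayed in a belt-fed spray hood. Watering continued only by sub-irrigation, and percent control was visually scored two weeks after treatment.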

Assay [14] deals with Cotton (CT). Nature of the assay: Pre-emergence herbicide test. The following applies: Gossypium hirsutum, 336 h, two weeks after treatment; for pest or weed control at 8966.8 g/ha: 8 lb/acre. It counts as in vivo, Gossypium hirsutum var. DPL smooth leaf. The gist of the method: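 Visual injury/control ratings were taken at two weeks post-spray. Pots seeded a day earlier received compound pre-emergence at 8 lbs/acre, or 4 lbs/acre, in a 38 gallon/acre spray volume, and were then held in the greenhouse, watered only from below.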

For assay [15], the system named is Corn (CN). Nature of the assay: Pre-emergence herbicide test. It counts as in vivo. The note with it: Zea mays, 336 h, two weeks after treatment; for pest or weed control at 8966.8 g/ha: 8 lb/acre. Put shortly: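 Visual injury/control ratings were made 2 weeks post-spray on corn pots seeded (4 seeds, seed-diameter depth) the day before treatment. Application was a belt-hood spray of 38 gal/acre delivering 8 lbs active per acre, with a 4 lbs/acre rate also formulated. Watering was by sub-irrigation throughout.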

The test system of assay [16] is Bean (BN). Nature of the assay: Pre-emergence herbicide test. It counts as in vivo, Phaseolus vulgaris var. Black Valentine. The note with it: Phaseolus vulgaris, 336 h, two weeks after treatment; for pest or weed control at 8966.8 g/ha: 8 lb/acre. Put shortly:
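Visual injury/control ratings were taken two weeks post-spray on sub-irrigated Phaseolus vulgaris var. Black Valentine. Pots were sown a day before treatment. Pre-emergence spray delivered 8 lbs actual compound per acre (or 4 lbs/acre) at 38 gallons per acre.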

For assay [17], the system named is Amaranth pigweed (PW). Kind of assay: Post-emergence herbicide test. It counts as in vivo, Amaranthus retroflexus. The note with it: 336 h, two weeks after treatment; for pest or weed control at 8966.8 g/ha: 8 lb/acre. The gist of the method:
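Visual injury or control ratings were made two weeks after spraying, with greenhouse watering by sub-irrigation only. Treatment was post-emergence, when pigweed seedlings had 1 or 2 true leaves, at 8 lbs active compound per acre (4 lbs/acre formulations also made) in a 38 gallons-per-acre spray volume.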

In the case of `CCC(C)Sc1nnc(NC(=O)NC)s1` (centres unmarked) [Example 48], the pest or weed control at 4483.4 g/ha in assay [1] worked out at 70%; in assay [2] it was 30%; in assay [3] it was 60%; in [4] it was 40%; in [5], 70%; in assay [6], 100%. The pest or weed control at 4483.4 g/ha in assay [7] turned out to be 30%; in assay [8], 50%.
Take `CCCSc1nnc(N(C)C(=O)NC)s1` [Example 69]: the pest or weed control in assay [9] (2 lb/acre) came out at 90%; in assay [1] (2 lb/acre) it was 100%; in assay [3] (2 lb/acre) it was 70%; in [7] (2 lb/acre), 80%. In addition, the pest or weed control at 4483.4 g/ha in assay [9] (4 lb/acre) worked out at 90%; in assay [10] (4 lb/acre), 40%; in assay [11] (4 lb/acre), 60%; in assay [12] (4 lb/acre), 100%; in assay [13] (4 lb/acre), 50%; in assay [14] (4 lb/acre) it was 30%. For the same compound, the pest or weed control at 4483.4 g/ha in assay [15] (4 lb/acre) worked out at 0%; in assay [16] (4 lb/acre), 0%; in assay [1] it was 90%; in assay [3], 80%; in [4], 80%; in assay [17] (4 lb/acre) it was 100%. Moreover, the pest or weed control at 4483.4 g/ha is 100% in assay [5], 100% in assay [6], 50% in assay [7] and 100% in [8]. Besides, the pest or weed control at 8966.8 g/ha worked out at 100% in assay [9]; 70% in [10]; 100% in [12]; 100% in assay [13]; 90% in [14]; 50% in assay [15]. In addition, the pest or weed control at 8966.8 g/ha in assay [16], in assay [1], in assay [3], in assay [17], in [5] and in [6] was 100% throughout. Moreover, the pest or weed control at 8966.8 g/ha in assay [7] and in assay [8] was 100% in each case. In addition, the pest or weed control at 2241.7 g/ha in assay [10] (2 lb/acre) stood at 20%; in assay [11] (2 lb/acre), 40%; in assay [13] (2 lb/acre) it was 90%; in assay [14] (2 lb/acre), 50%; in [15] (2 lb/acre), 30%; in [16] (2 lb/acre), 0%. Also, the pest or weed control at 2241.7 g/ha was 90% in [4] (2 lb/acre), 100% in [5] (2 lb/acre), 100% in assay [6] (2 lb/acre) and 100% in [8] (2 lb/acre).
For the compound `CNC(=O)Nc1nnc(SCc2ccc(Cl)cc2)s1` [Example 87], the pest or weed control at 8966.8 g/ha came to 10% in assay [9]; 20% in assay [10]; 20% in assay [11] (8 lb/acre); 70% in assay [12]; 10% in assay [13]; 50% in [14]. In addition, the pest or weed control at 8966.8 g/ha was determined as 10% in assay [15]; 100% in assay [16]; 20% in assay [1]; 10% in assay [3]; 20% in [4] (8 lb/acre); 40% in assay [17]. Besides, the pest or weed control at 8966.8 g/ha in assay [5] is 60%; in assay [6], 70%; in assay [7] it was 10%; in assay [8], 100%.
